Results taken from ChEMBL document CHEMBL4425161, “1α,2α-Epoxy-3β-hydroxy oleanolic acid derivatives regulation of the metabolism, haemolysis and β-lactamase gene expression in vitro and their structure-microbicidal activity relationship” (2016).
Active and inactive are the calls of the source.

Columns and labels:
Klebsiella pneumoniae = assay: Antibacterial activity against Klebsiella pneumoniae ATCC BAA-1705 assessed as bacterial growth inhibition after 8 hrs by turbidimetric plate reader method; assay type: functional
Bacillus subtilis [1] = assay: Antibacterial activity against Bacillus subtilis ATCC 6051 assessed as bacterial growth inhibition after 8 hrs by turbidimetric plate reader method; assay type: functional; settings: for MBC: ATCC 6051, 8 h
Bacillus subtilis [2] = assay: Antibacterial activity against Bacillus subtilis ATCC 6051 assessed as bacterial growth inhibition at 50 umol/L after 8 hrs by turbidimetric plate reader method; assay type: functional, organism-based
Acinetobacter baumannii [3] = assay: Antibacterial activity against Acinetobacter baumannii ATCC BAA-1710D assessed as bacterial growth inhibition after 8 hrs by turbidimetric plate reader method; assay type: functional
Bacillus subtilis [4] = assay: Downregulation of yqhC gene expression in Bacillus subtilis ATCC 6051 at 50 umol/L after 8 hrs by semi-quantitative RT-PCR; assay type: functional, organism-based
Escherichia coli [5] = assay: Upregulation of acrA gene expression in Escherichia coli ATCC 25922 at 50 umol/L after 8 hrs by real time RT-PCR relative to gapA; assay type: functional, organism-based
Bacillus subtilis [6] = assay: Downregulation of yhdT gene expression in Bacillus subtilis ATCC 6051 at 50 umol/L after 8 hrs by semi-quantitative RT-PCR; assay type: functional, organism-based
Bacillus subtilis [7] = assay: Downregulation of yqhB gene expression in Bacillus subtilis ATCC 6051 at 50 umol/L after 8 hrs by semi-quantitative RT-PCR; assay type: functional, organism-based
Escherichia coli [8] = assay: Upregulation of cysB gene expression in Escherichia coli ATCC 25922 at 50 umol/L after 8 hrs by real time RT-PCR; assay type: functional, organism-based
Escherichia coli [9] = assay: Downregulation of tsh gene expression in Escherichia coli ATCC 25922 at 50 umol/L after 8 hrs by real time RT-PCR; assay type: functional, organism-based
Escherichia coli [10] = assay: Downregulation of tsh gene expression in Escherichia coli ATCC 25922 at 50 umol/L after 8 hrs by semi-quantitative RT-PCR; assay type: functional, organism-based
Bacillus subtilis [11] = assay: Downregulation of yqhB gene expression in Bacillus subtilis ATCC 6051 at 50 umol/L after 8 hrs by real time RT-PCR; assay type: functional, organism-based
Escherichia coli [12] = assay: Upregulation of cysB gene expression in Escherichia coli ATCC 25922 at 50 umol/L after 8 hrs by semi-quantitative RT-PCR; assay type: functional, organism-based
Escherichia coli [13] = assay: Downregulation of iroD gene expression in Escherichia coli ATCC 25922 at 50 umol/L after 8 hrs by real time RT-PCR; assay type: functional, organism-based
Escherichia coli [14] = assay: Downregulation of iroD gene expression in Escherichia coli ATCC 25922 at 50 umol/L after 8 hrs by semi-quantitative RT-PCR; assay type: functional, organism-based
Escherichia coli [15] = assay: Antibacterial activity against Escherichia coli ATCC 25922 assessed as bacterial growth inhibition at 50 umol/L after 8 hrs by turbidimetric plate reader method; assay type: functional, organism-based
Escherichia coli [16] = assay: Upregulation of acrA gene expression in Escherichia coli ATCC 25922 at 50 umol/L after 8 hrs by semi-quantitative RT-PCR; assay type: functional, organism-based
Escherichia coli [17] = assay: Antibacterial activity against Escherichia coli ATCC 25922 assessed as bacterial growth inhibition after 8 hrs by turbidimetric plate reader method; assay type: functional; settings: for MBC: ATCC 25922, 8 h
Bacillus subtilis [18] = assay: Downregulation of yqhC gene expression in Bacillus subtilis ATCC 6051 at 50 umol/L after 8 hrs by real time RT-PCR; assay type: functional, organism-based
Bacillus subtilis [19] = assay: Downregulation of yhdT gene expression in Bacillus subtilis ATCC 6051 at 50 umol/L after 8 hrs by real time RT-PCR; assay type: functional, organism-based
Acinetobacter baumannii [20] = assay: Upregulation of CARB gene expression in Acinetobacter baumannii ATCC BAA-1710D at 50 umol/L after 8 hrs by semi-quantitative RT-PCR; assay type: functional, organism-based
Acinetobacter baumannii [21] = assay: Downregulation of PER gene expression in Acinetobacter baumannii ATCC BAA-1710D at 50 umol/L after 8 hrs by real time RT-PCR; assay type: functional, organism-based
Acinetobacter baumannii [22] = assay: Upregulation of SHV gene expression in Acinetobacter baumannii ATCC BAA-1710D at 50 umol/L after 8 hrs by semi-quantitative RT-PCR; assay type: functional, organism-based
Acinetobacter baumannii [23] = assay: Downregulation of GES gene expression in Acinetobacter baumannii ATCC BAA-1710D at 50 umol/L after 8 hrs by real time RT-PCR; assay type: functional, organism-based
Acinetobacter baumannii [24] = assay: Downregulation of PER gene expression in Acinetobacter baumannii ATCC BAA-1710D at 50 umol/L after 8 hrs by semi-quantitative RT-PCR; assay type: functional, organism-based
Acinetobacter baumannii [25] = assay: Upregulation of VEB gene expression in Acinetobacter baumannii ATCC BAA-1710D at 50 umol/L after 8 hrs by semi-quantitative RT-PCR; assay type: functional, organism-based
Acinetobacter baumannii [26] = assay: Upregulation of SHV gene expression in Acinetobacter baumannii ATCC BAA-1710D at 50 umol/L after 8 hrs by real time RT-PCR; assay type: functional, organism-based
Acinetobacter baumannii [27] = assay: Upregulation of CARB gene expression in Acinetobacter baumannii ATCC BAA-1710D at 50 umol/L after 8 hrs by real time RT-PCR; assay type: functional, organism-based
Acinetobacter baumannii [28] = assay: Upregulation of TEM gene expression in Acinetobacter baumannii ATCC BAA-1710D at 50 umol/L after 8 hrs by real time RT-PCR; assay type: functional, organism-based
Acinetobacter baumannii [29] = assay: Upregulation of TEM gene expression in Acinetobacter baumannii ATCC BAA-1710D at 50 umol/L after 8 hrs by semi-quantitative RT-PCR; assay type: functional, organism-based
Acinetobacter baumannii [30] = assay: Downregulation of GES gene expression in Acinetobacter baumannii ATCC BAA-1710D at 50 umol/L after 8 hrs by semi-quantitative RT-PCR; assay type: functional, organism-based
Acinetobacter baumannii [31] = assay: Upregulation of VEB gene expression in Acinetobacter baumannii ATCC BAA-1710D at 50 umol/L after 8 hrs by real time RT-PCR; assay type: functional, organism-based
Acinetobacter baumannii [32] = assay: Antibacterial activity against Acinetobacter baumannii ATCC BAA-1710D assessed as bacterial growth inhibition at 50 umol/L after 8 hrs by turbidimetric plate reader method; assay type: functional, organism-based

CN[C@@H]1[C@H](O[C@H]2[C@H](O[C@H]3[C@H](O)[C@@H](O)[C@H](N=C(N)N)[C@@H](O)[C@@H]3N=C(N)N)O[C@@H](C)[C@]2(O)C=O)O[C@@H](CO)[C@H](O)[C@H]1O [STREPTOMYCIN]
2.1 µM: MBC (Bacillus subtilis [1])
1.3 µM: MBC (Klebsiella pneumoniae; ATCC BAA-1705, 8 h)

CC1(C)CC[C@]2(C(=O)OCc3ccccc3C#N)CC[C@]3(C)C(=CC[C@@H]4[C@@]5(C)[C@H]6O[C@H]6[C@H](O)C(C)(C)[C@@H]5CC[C@]43C)[C@@H]2C1
active: growth inhibition (GI) (Bacillus subtilis [2]) | growth inhibition (GI) (Klebsiella pneumoniae) Dose-dependent effect | growth inhibition (GI) (Acinetobacter baumannii [3]) Dose-dependent effect | Activity (Bacillus subtilis [4]) | Activity (Escherichia coli [5]) | Activity (Bacillus subtilis [6]) | Activity (Bacillus subtilis [7]) | Activity (Escherichia coli [8]) | Activity (Escherichia coli [9]) | Activity (Escherichia coli [10]) | Activity (Bacillus subtilis [11]) | Activity (Escherichia coli [12]) | Activity (Escherichia coli [13]) | Activity (Escherichia coli [14]) | growth inhibition (GI) (Escherichia coli [15]) | growth inhibition (GI) (Bacillus subtilis [1]) Dose-dependent effect | Activity (Escherichia coli [16]) | growth inhibition (GI) (Escherichia coli [17]) Dose-dependent effect | Activity (Bacillus subtilis [18]) | Activity (Bacillus subtilis [19])
2 µM: MBC (Bacillus subtilis [1])
5.3 µM: MBC (Escherichia coli [17])

CC1(C)S[C@@H]2[C@H](NC(=O)[C@H](N)c3ccccc3)C(=O)N2[C@H]1C(=O)O [AMPICILLIN]
1.8 µM: MBC (Escherichia coli [17])

CC(=O)O[C@H]1[C@@H]2O[C@@H]2[C@]2(C)[C@H]3CC=C4[C@@H]5CC(C)(C)CC[C@]5(C(=O)O)CC[C@@]4(C)[C@]3(C)CC[C@H]2C1(C)C
2.8 µM: MBC (Acinetobacter baumannii [3])
active: Activity (Acinetobacter baumannii [20]) | Activity (Acinetobacter baumannii [21]) | Activity (Acinetobacter baumannii [22]) | growth inhibition (GI) (Klebsiella pneumoniae) Dose-dependent effect | growth inhibition (GI) (Acinetobacter baumannii [3]) Dose-dependent effect | Activity (Acinetobacter baumannii [23]) | Activity (Acinetobacter baumannii [24]) | Activity (Acinetobacter baumannii [25]) | Activity (Acinetobacter baumannii [26]) | Activity (Acinetobacter baumannii [27]) | Activity (Acinetobacter baumannii [28]) | growth inhibition (GI) (Bacillus subtilis [1]) Dose-dependent effect | growth inhibition (GI) (Escherichia coli [17]) Dose-dependent effect | Activity (Acinetobacter baumannii [29]) | Activity (Acinetobacter baumannii [30]) | Activity (Acinetobacter baumannii [31]) | growth inhibition (GI) (Acinetobacter baumannii [32])
